Assays:
Test in all cases: Soil treatment test for upland field
Parameters in all cases: key: 0: normal development; 1: Less damaged; 2: Slightly damaged; 3: Moderately damaged; 4: Severely damaged; 5: All killed
Conditions in all cases: 500 g/ha, glass house 25° C., 3 weeks
corn = format: in vivo
Text: (§1) (0: normal development, 1: Less damaged, 2: Slightly damaged, 3: Moderately damaged, 4: Severely damaged, 5: All killed).
(§2) Wagner pots, each having an area of 1/5000 are, were packed with Ube soil (alluvial soil), and then each seed of corn, soybean, cotton, wheat, solgum, sugar beat, Large crabgrass, barnyardgrass, green foxtail, blackgrass, annual bluegrass, common lambsquartes, livid amaranth and velvetleaf were planted and covered with soil.
(§3) Each wettable powder of the desired compounds (I) shown in Table 1 prepared in accordance with Example 2 was diluted with water containing a surfactant (0.05%) and uniformly sprayed on the surface of each soil so that an effective concentration of the compound (I) in each herbicide became 500 g/ha. These plants were controlled in a glass house at an average temperature of 25° C. for 3 weeks, and then herbicidal effects thereof were investigated.
(§4) The herbicidal effects were evaluated according to the evaluation method described in the above (1).

cotton = format: in vivo
Text: as §1, §2, §3, §4

solgum = format: in vivo
Text: as §1, §2, §3, §4

soybean = format: in vivo
Text: as §1, §2, §3, §4

sugar beat = format: in vivo
Text: as §1, §2, §3, §4

wheat = format: in vivo
Text: as §1, §2, §3, §4

Large crabgrass = format: in vivo, Digitaria adscendens
Text: as §1, §2, §3, §4

green foxtail = format: in vivo, Setaria viridis
Text: as §1, §2, §3, §4

annual bluegrass = format: in vivo, Poa annua
Text: as §1, §2, §3, §4

common lambsquartes = format: in vivo, Chenopodium album
Text: as §1, §2, §3, §4

livid amaranth = format: in vivo, Amaranthus lividus
Text: as §1, §2, §3, §4

barnyardgrass = format: in vivo, Echinochloa crusgalli
Text: as §1, §2, §3, §4

velvetleaf = format: in vivo, Abutilon theophrasti
Text: as §1, §2, §3, §4

blackgrass = format: in vivo, Alopecurus aegualis
Text: as §1, §2, §3, §4

Structure (SMILES)	Effects Corn (corn)	Effects Cotton (cotton)	Effects Solgum (solgum)	Effects Soybean (soybean)	Effects Sugar beat (sugar beat)	Effects Wheat (wheat)	Effects Large crabgrass (Large crabgrass)	Effects Green foxtail (green foxtail)	Effects Annual bluegrass (annual bluegrass)	Effects Common lambsquarters (common lambsquartes)	Effects Livid amaranth (livid amaranth)	Effects Barnyardgrass (barnyardgrass)	Effects Velvetleaf (velvetleaf)	Effects Blackgrass (blackgrass)
CCC(Oc1ccc(F)c(C(F)(F)F)c1)c1nc2ccc([N+](=O)[O-])cc2o1 (centres unmarked) [Compound 39]	0	1	0	0	2	0	4	4	4	3	5	–	–	–
CCC(Oc1cccc(C(F)(F)F)c1)c1nc2ccc(C(F)(F)F)cc2o1 (centres unmarked) [Compound 94]	0	–	0	0	2	0	5	4	1	1	5	3	0	–
CCC(Oc1cccc(C(F)(F)F)c1)c1nc2cc(I)ccc2o1 (centres unmarked) [Compound 172]	0	0	0	0	0	0	5	5	3	–	5	–	–	1
CCC(Oc1ccc(F)c(C(F)(F)F)c1)c1nc2cc(S(C)(=O)=O)ccc2o1 (centres unmarked) [Compound 215]	0	1	0	0	5	0	5	4	3	4	5	–	5	–
CCC(Oc1cccc(C(F)(F)F)c1)c1nc2cc(S(C)(=O)=O)ccc2o1 (centres unmarked) [Compound 216]	0	0	0	0	5	0	4	5	2	5	5	3	3	–
CCC(Oc1ccc(F)c(C(F)(F)F)c1)c1nc2cc(Cl)c([N+](=O)[O-])cc2o1 (centres unmarked) [Compound 334, 1-(5-chloro-6-nitrobenzoxazol-2-yl)-1-(4-fluoro-3-(trifluoromethyl)phenoxy)propane]	0	1	1	0	3	2	5	5	4	2	5	3	–	4
CCC(Oc1ccc(Cl)c(C(F)(F)F)c1)c1nc2cc([N+](=O)[O-])ccc2o1 (centres unmarked) [Compound 432]	0	0	2	0	5	0	5	5	5	3	5	4	2	3
CCC(Oc1cccc(C#N)c1)c1nc2cc(Cl)c(C)cc2o1 (centres unmarked) [Compound 481]	0	0	0	0	3	0	5	4	2	2	4	–	3	–
CCCC(Oc1cccc(C#N)c1)c1nc2cc(Cl)c(C)cc2o1 (centres unmarked) [Compound 484]	1	0	0	0	5	0	5	5	5	5	5	–	5	–
CCC(Oc1ccc(F)c(C(F)(F)F)c1)c1nc2cc(S(C)(=O)=O)c(C)cc2o1 (centres unmarked) [Compound 487]	0	0	0	0	5	0	5	3	4	4	5	2	3	–
CCC(Oc1cccc(C#N)c1)c1nc2cc(S(C)(=O)=O)ccc2o1 (centres unmarked) [Compound 507]	0	0	0	0	0	0	–	3	–	5	5	–	–	–
CCCC(Oc1cccc(C#N)c1)c1nc2cc(S(C)(=O)=O)ccc2o1 (centres unmarked) [Compound 508]	0	0	0	0	4	0	4	5	2	3	5	–	3	–
CCC(Oc1ccc(Cl)c(C#N)c1)c1nc2cc(S(C)(=O)=O)ccc2o1 (centres unmarked) [Compound 509]	0	0	0	0	5	0	2	3	–	5	5	–	3	–

Reference: patent publication US6706664B1, “Benzoxazole compounds, process for the preparation thereof and herbicides” (UBE Industries, Ltd., priority 1999, dated 2004)
